The values that follow are results of earlier work, collected in US20250241296A1, “HIGH-LOAD AGRICULTURAL FORMULATIONS AND METHODS OF MAKING SAME” (priority 2022, published 2025).

The conditions of data set [1]: footnote a: values from the Chemistry Dashboard of the US Environmental Protection Agency.
The conditions of data set [2]: footnote a: values from the Chemistry Dashboard of the US Environmental Protection Agency. This is another data set of the same source.

Turning to Abamectin, the Density in data set [1] is on record as 1.28^a g/mL. Besides, the “Solubility in Water” value in data set [2] is on record as 36.4^a mg/L.
For the compound `COC(=O)Nc1nc2ccccc2[nH]1` [Carbendazim], in data set [1], the Density is given as 1.39^a g/mL.
Turning to `CO/C=C(/C(=O)OC)c1ccccc1COc1cccc(C(F)(F)F)n1` [Picoxystrobin], the Density in data set [1] was 1.28^a g/mL. Further, in data set [2], the “Solubility in Water” value is on record as 8.30^a mg/L.
With `CC(c1ccc(C(F)(F)F)nc1)S(C)(=O)=NC#N` (stereo not drawn) [Sulfoxaflor], the Density in data set [1] was 1.34^a g/mL.
Take `O=[N+]([O-])c1cc(C(F)(F)F)c(Cl)c([N+](=O)[O-])c1Nc1ncc(C(F)(F)F)cc1Cl` [Fluazinam]: the Density in data set [1] is 1.80^a g/mL.
`CC(C1CC1)C(O)(Cn1cncn1)c1ccc(Cl)cc1` (stereo not drawn) [Cyproconazole]: the Density in data set [1] is given as 1.31^a g/mL.
In the case of `CCCC1COC(Cn2cncn2)(c2ccc(Cl)cc2Cl)O1` (stereo not drawn) [Propiconazole], the Density in data set [1] was 1.39^a g/mL.
On to Spinosad, for which the Density in data set [1] was 1.20^a g/mL. The “Solubility in Water” value in data set [2] is 295^a mg/L.
For the compound `CO/C=C(/C(=O)OC)c1ccccc1Oc1cc(Oc2ccccc2C#N)ncn1` [Azoxystrobin], the Density in data set [1] was 1.34^a g/mL. Also, in data set [2], the “Solubility in Water” value was 6.01^a mg/L.
Regarding `CN1COCN(Cc2cnc(Cl)s2)/C1=N\[N+](=O)[O-]` [Thiamethoxam], the Density in data set [1] is given as 1.76^a g/mL.
`CNC(=O)c1cc(Cl)cc(C)c1NC(=O)c1cc(Br)nn1-c1ncccc1Cl` [Chlorantraniliprole]: the Density in data set [1] was 1.65^a g/mL.
For `Fc1ccc([C@]2(Cn3cncn3)O[C@H]2c2ccccc2Cl)cc1` (racemic) [Epoxiconazole], the Density in data set [1] is reported as 1.42^a g/mL.
For the compound `CNC(=O)c1cc(C#N)cc(C)c1NC(=O)c1cc(Br)nn1-c1ncccc1Cl` [Cyantraniliprole], in data set [1], the Density is 1.65^a g/mL.
`COCC(=O)N(c1c(C)cccc1C)[C@H](C)C(=O)OC` [Metalaxyl-M]: the Density in data set [1] is given as 1.09^a g/mL.
Take `COC(=O)N(OC)c1ccccc1COc1ccn(-c2ccc(Cl)cc2)n1` [Pyraclostrobin]: in data set [1], the Density is on record as 1.34^a g/mL.
Consider `N#Cc1c[nH]cc1-c1cccc2c1OC(F)(F)O2` [Fludioxinil], for which the Density in data set [1] is reported as 1.54^a g/mL.
As to `N#Cc1ccccc1NC(=O)c1snc(Cl)c1Cl` [Isotianil], in data set [1], the Density is recorded as 1.56^a g/mL.
Consider `Cc1nn(C)c(F)c1C(=O)Nc1ccccc1C(C)CC(C)C` (stereo not drawn) [Penflufen], for which the Density in data set [1] is on record as 1.18^a g/mL.
For the compound `Cc1cc(C(F)(C(F)(F)F)C(F)(F)F)ccc1NC(=O)c1cccc(I)c1C(=O)NC(C)(C)CS(C)(=O)=O` [Flubendiamide], the Density in data set [1] is given as 1.78^a g/mL.
In the case of `CNC(=O)/C(=N/OC)c1ccccc1Oc1ccccc1` [Metominostrobin], the Density in data set [1] is recorded as 1.13^a g/mL.
On to `CC12CC1(C)C(=O)N(c1cc(Cl)cc(Cl)c1)C2=O` (stereo not drawn) [Procymidone], for which the Density in data set [1] is given as 1.43^a g/mL.
Turning to Spinetoram, the Density in data set [1] is listed as 1.18^a g/mL. Moreover, the “Solubility in Water” value in data set [2] is 162^a mg/L.
